Test results reported in patent publication US8674096B2, “Substituted imidazo[1,5-a]quinoxalin-4-ones as phosphodiesterase 9 inhibitors” (priority 2009, dated 2014).

melting point	Compound
322 °C (dec.)	Cc1cc2c(cc1C(=O)N1Cc3ccccc3C1)[nH]c(=O)c1nnc(C3CCC(F)(F)CC3)n12
200 to 203 °C	Cc1cc2c(cc1C(=O)N1Cc3ccc(F)cc3C1)[nH]c(=O)c1cnc(C3CCOCC3)n12.Cl
243 to 245 °C	Cc1cc2c(cc1C(=O)N1CCc3cc(Cl)ccc31)[nH]c(=O)c1nnc(C3CC(F)(F)C3)n12
199 to 201 °C (dec.)	COc1cc2c(cc1C(=O)N1Cc3ccccc3C1)[nH]c(=O)c1cnc(C3CCOCC3)n12.Cl
232 °C (dec.)	Cc1cc2c(cc1C(=O)N1Cc3ccccc3C1)[nH]c(=O)c1nnc(C3(C)CCOCC3)n12
198 to 200 °C	Cc1cc2c(cc1C(=O)N1Cc3cccc(Cl)c3C1)[nH]c(=O)c1cnc(C3CCOCC3)n12.Cl
261 to 264 °C (dec.)	COCc1cc2c(cc1C(=O)N1Cc3ccccc3C1)[nH]c(=O)c1cnc(C3CCOCC3)n12.Cl
304 °C (dec.)	Cc1cc2c(cc1C(=O)N1Cc3ccccc3C1)[nH]c(=O)c1cnc(C3CCCC3)n12
195 to 197 °C	COc1cc2c(cc1C(=O)N1Cc3cccc(F)c3C1)[nH]c(=O)c1cnc(C3CCOCC3)n12.Cl
192 °C (dec.)	Cc1cc2c(cc1C(=O)N1CCc3cccnc31)[nH]c(=O)c1c(C)nc(C3CCOCC3)n12
318 °C (dec.)	Cc1cc2c(cc1C(=O)N1Cc3ccccc3C1)[nH]c(=O)c1nnc(C3CCCC3)n12
301 to 304 °C (dec.)	COCc1cc2c(cc1C(=O)N1CCc3cc(F)ccc31)[nH]c(=O)c1cnc(C3CCOCC3)n12.Cl
228 to 231 °C	Cc1cc2c(cc1C(=O)N1Cc3ccc(F)cc3C1)[nH]c(=O)c1cnc(C3CCCC3)n12
241 °C (dec.)	COc1cc2c(cn1)N(C(=O)c1cc3[nH]c(=O)c4cnc(C5CCOCC5)n4c3cc1C1CC1)CC2
303 to 305 °C	Cc1cc2c(cc1C(=O)N1CCc3cc(Cl)ccc31)[nH]c(=O)c1nnc(CC3CC3)n12
170 to 172 °C	Cc1cc2c(cc1C(=O)N1CCCc3ccccc3C1)[nH]c(=O)c1cnc(C3CCOCC3)n12.Cl
304 to 305 °C	Cc1cc2c(cc1C(=O)N1CCOC(c3ccccc3)C1)[nH]c(=O)c1cnc(C3CCCC3)n12 (stereo not shown)
301 to 302 °C (dec.)	Cc1cc2c(cc1C(=O)N1Cc3ccccc3C1)[nH]c(=O)c1cnc([C@@H]3CCC[C@@H]3O)n12 (racemic)
263 to 265 °C	COc1cc2c(cn1)N(C(=O)c1cc3[nH]c(=O)c4nnc(C5CCCC5)n4c3cc1C)CC2

melting point	Compound
272 to 273 °C	Cc1cc2c(cc1C(=O)N1CCc3c(Cl)cccc31)[nH]c(=O)c1cnc(C3CCOCC3)n12.Cl
328 °C (dec.)	Cc1cc2c(cc1C(=O)N1Cc3cccc(C#N)c3C1)[nH]c(=O)c1cnc(C3CCOCC3)n12.Cl
203 to 205 °C	Cc1cc2c(cc1C(=O)N1Cc3cccc(F)c3C1)[nH]c(=O)c1cnc(C3CCOC3)n12.Cl (stereo not shown)
221 to 223 °C	Cc1cc2c(cc1C(=O)N1CCc3cc(F)ccc31)[nH]c(=O)c1nnc(C3CCOCC3)n12.Cl
335 °C (dec.)	Cc1cc2c(cc1C(=O)N1Cc3ccccc3C1)[nH]c(=O)c1c(C)nc(C3CCOCC3)n12.Cl
310 °C (dec.)	O=C(c1cc2[nH]c(=O)c3cnc(C4CCOCC4)n3c2cc1C1CC1)N1CCc2cc(C3CC3)cnc21
199 to 201 °C (dec.)	Cc1cc2c(cc1C(=O)N1Cc3c(F)ccc(F)c3C1)[nH]c(=O)c1cnc(C3CCOCC3)n12.Cl
316 °C (dec.)	Cc1cc2c(cc1C(=O)N1Cc3ccccc3C1)[nH]c(=O)c1nnc(-c3ccccc3)n12
188 to 189 °C	Cc1cc2c(cc1C(=O)N1CCc3ccc(Cl)cc31)[nH]c(=O)c1cnc(C3CCOCC3)n12.Cl
286 °C (dec.)	CN1CCN(C(=O)c2ccc3c(c2)[nH]c(=O)c2nnc(-c4ccc(O)cc4)n23)CC1c1ccccc1 (stereo not shown)
229 to 232 °C	Cc1cc2c(cc1C(=O)N1CCc3cc(Cl)ccc31)[nH]c(=O)c1nnc(C3(C)CCOCC3)n12.Cl
238 to 240 °C	Cc1cc2c(cc1C(=O)N1CCc3cc(Cl)ccc31)[nH]c(=O)c1cnc([C@@H]3CCC[C@@H]3O)n12 (racemic) [Example 343]
350 °C (dec.)	O=C(c1cc2[nH]c(=O)c3nnc(C4CCOCC4)n3c2cc1Br)N1Cc2ccccc2C1
311 °C (dec.)	Cc1cc2c(cc1C(=O)N1Cc3cccc(C)c3C1)[nH]c(=O)c1nnc(C3CCOC3)n12.Cl (stereo not shown)
210 to 213 °C (dec.)	COc1cc2c(cc1C(=O)N1Cc3ccc(Cl)cc3C1)[nH]c(=O)c1cnc(C3CCOCC3)n12.Cl
310 to 312 °C	Cc1cc2c(cc1C(=O)N1CCc3c(Cl)cccc3C1)[nH]c(=O)c1nnc(-c3sccc3C)n12
267 °C (dec.)	Cc1cc2c(cc1C(=O)N1CCc3c(Cl)cccc3C1)[nH]c(=O)c1cnc(C3CCOCC3)n12
236 °C (dec.)	Cc1cc2c(cc1C(=O)N1Cc3ccccc3C1)[nH]c(=O)c1nnc(C3CCC3)n12.Cl
198 to 201 °C	COCc1cc2c(cc1C(=O)N1CCc3cc(Cl)ccc31)[nH]c(=O)c1nnc(C3(C)CCOCC3)n12.Cl

The remaining lines, values behind:

Compound	melting point
COc1cc2c(cn1)N(C(=O)c1cc3[nH]c(=O)c4cnc(C5CCOCC5)n4c3cc1C)CC2	232 to 233 °C
Cc1cc2c(cc1C(=O)N1CCc3cccnc31)[nH]c(=O)c1nnc(C3CCC(F)(F)CC3)n12.Cl	310 °C (dec.)
Cc1cc2c(cc1C(=O)N1CCc3cccnc31)[nH]c(=O)c1nnc(C3CCCOC3)n12 (stereo not shown)	314 °C (dec.)
Cc1cc2c(cc1C(=O)N1Cc3ccccc3C1)[nH]c(=O)c1cnc(C3CCOC3)n12.Cl (stereo not shown)	270 °C (dec.)
Cc1cc2c(cc1C(=O)N1CCc3c(Cl)cc(Cl)cc3C1)[nH]c(=O)c1cnc(C3CCOCC3)n12.Cl	188 to 190 °C (dec.)
Cc1cc2c(cc1C(=O)N1CCc3ccccc31)[nH]c(=O)c1cnc(C3CCOCC3)n12.Cl	216 to 219 °C
CN(C)CCOc1cc2c(cc1C(=O)N1CCc3cc(Cl)ccc31)[nH]c(=O)c1cnc(C3CCOCC3)n12	219 to 221 °C (dec.)
COc1cc2c(cn1)N(C(=O)c1cc3[nH]c(=O)c4nnc(C5CCOCC5)n4c3cc1C)CC2	271 °C (dec.)
Cc1cc2c(cc1C(=O)N1CCc3cc(F)ccc31)[nH]c(=O)c1nnc(C3CCCOC3)n12.Cl (stereo not shown)	235 to 237 °C
Cc1cc2c(cc1C(=O)N1Cc3c(F)ccc(F)c3C1)[nH]c(=O)c1cnc(C3CCCOC3)n12 (stereo not shown)	223 to 225 °C
Cc1cc2c(cc1C(=O)N1CCc3cccnc31)[nH]c(=O)c1nnc(C3CCCC3)n12	207 to 209 °C
Cc1cc2c(cc1C(=O)N1Cc3ccccc3C1)[nH]c(=O)c1nnc(C3CCOC(C)(C)C3)n12 (stereo not shown)	287 °C (dec.)
Cc1cc2c(cc1C(=O)N1CCc3c(Cl)cccc3C1)[nH]c(=O)c1nnc(C3CCOCC3)n12	269 °C (dec.)
Cc1cc2c(cc1C(=O)N1CCc3cc(Cl)ccc31)[nH]c(=O)c1nnc(C(=O)C3CC3)n12.Cl	288 to 290 °C
CCCc1nnc2c(=O)[nH]c3cc(C(=O)N4CCN(c5ccccc5Cl)CC4)c(C)cc3n12	186 to 188 °C
Cc1cc2c(cc1C(=O)N1CCc3cc(F)ccc31)[nH]c(=O)c1nnc(C3CC(F)(F)C3)n12	234 to 235 °C
Cc1ccc2c(c1)CCN2C(=O)c1cc2[nH]c(=O)c3c(C)nc(C4CCOCC4)n3c2cc1C.Cl	264 to 266 °C (dec.)
CCCc1nnc2c(=O)[nH]c3cc(C(=O)N4Cc5ccc(F)cc5C4)ccc3n12	293 °C (dec.)
Cc1cc2c(cc1C(=O)N1Cc3cccc(C)c3C1)[nH]c(=O)c1cnc(C3CCOC3)n12.Cl (stereo not shown)	270 to 272 °C (dec.)

Compound	melting point
Cc1cc2c(cc1C(=O)N1CCc3cc(F)ccc31)[nH]c(=O)c1c(C)nc(C3CCOCC3)n12	177 to 180 °C
Cc1cc2c(cc1C(=O)N1Cc3ccc(Cl)cc3C1)[nH]c(=O)c1cnc(C3CCOC3)n12.Cl (stereo not shown)	185 to 187 °C
Cc1cc2c(cc1C(=O)N1CCc3cc(Cl)ccc31)[nH]c(=O)c1c(C)nc(C3CCOCC3)n12.Cl	198 °C (dec.)
O=C(c1ccc2c(c1)[nH]c(=O)c1nnc(C3CCOCC3)n12)N1Cc2ccccc2C1	303 °C (dec.)
Cc1cc2c(cc1C(=O)N1Cc3ccccc3C1)[nH]c(=O)c1nnc(C3CCCOC3)n12.Cl (stereo not shown)	303 °C (dec.)
Cc1cc2c(cc1C(=O)N1Cc3cccc(N4CCOCC4)c3C1)[nH]c(=O)c1cnc(C3CCOCC3)n12.Cl	225 °C (dec.)
Cc1cc2c(cc1C(=O)N1CCc3onc(-c4ccc(F)cc4)c3C1)[nH]c(=O)c1nnc(C3CCOC3)n12 (stereo not shown)	282 to 284 °C (dec.)
CC(C)c1ncc2c(=O)[nH]c3cc(C(=O)N4CCOC(c5ccccc5)C4)ccc3n12.Cl (stereo not shown)	268 to 271 °C
Cc1cc2c(cc1C(=O)N1Cc3ccccc3C1)[nH]c(=O)c1nnc(CC3CC[S+]([O-])CC3)n12 (stereo not shown)	248 °C (dec.)
COc1cc2c(cc1C(=O)N1CCc3cc(Cl)ccc31)[nH]c(=O)c1nnc(C3CCOCC3)n12.Cl	284 °C (dec.)
Cc1cnc2c(c1)CCN2C(=O)c1cc2[nH]c(=O)c3cnc(C4CCOCC4)n3c2cc1C	313 to 315 °C
Cc1cc2c(cc1C(=O)N1CCc3cc(Cl)ccc31)[nH]c(=O)c1cnc(C3CCCOC3)n12.Cl (stereo not shown)	206 to 208 °C
Cc1cc2c(cc1C(=O)N1Cc3ccccc3C1)[nH]c(=O)c1nnc([C@H]3CC[C@H](C)CC3)n12	318 to 321 °C
CCCc1nnc2c(=O)[nH]c3cc(C(=O)N4CCc5c(Cl)cccc5C4)ccc3n12	293 to 295 °C
Cc1cc2c(cc1C(=O)N1Cc3cccc(Cl)c3C1)[nH]c(=O)c1nnc(C3CCOCC3)n12	329 °C (dec.)
Cl.O=C(c1cc2[nH]c(=O)c3cnc(C4CCOCC4)n3c2cc1Cl)N1Cc2ccccc2C1	332 °C (dec.)
Cc1cc2c(cc1C(=O)N1CCc3cc(F)ccc31)[nH]c(=O)c1nnc(C3CCC3)n12.Cl	223 to 226 °C
COc1cc2c(cc1C(=O)N1CCc3cc(Cl)ccc31)[nH]c(=O)c1cnc(C3CCOCC3)n12.Cl	328 to 330 °C (dec.)
Cc1cc2c(cc1C(=O)N1CCc3cc(C4CC4)cnc31)[nH]c(=O)c1nnc(C3CCCOC3)n12 (stereo not shown)	204 to 206 °C
